In article PMC11345841, “Exploring 2-Sulfonylpyrimidine Warheads as Acrylamide Surrogates for Targeted Covalent Inhibition: A BTK Story” (Journal of Medicinal Chemistry, 2024):
Read-outs that look alike come from different tables or passages of the source.

Key:
[1] = biological target: T1, ABL1(F317L)-nonphosphorylated (Homo sapiens, UniProt P00519, F317L); experiment: KINOMEscan ScanTK; format: binding
T1 construct: purchased Eurofins DiscoverX KINOMEscan (scanTK)

[2] = biological target: T2, EPHA2 (Homo sapiens, UniProt P29317); experiment: KINOMEscan ScanTK; format: binding
T2 construct: purchased Eurofins DiscoverX KINOMEscan (scanTK)

[3] = biological target: T3, EPHA3 (Homo sapiens, UniProt P29320); experiment: KINOMEscan ScanTK; format: binding
T3 construct: purchased Eurofins DiscoverX KINOMEscan (scanTK)
T3 sequence (P29320 21-983): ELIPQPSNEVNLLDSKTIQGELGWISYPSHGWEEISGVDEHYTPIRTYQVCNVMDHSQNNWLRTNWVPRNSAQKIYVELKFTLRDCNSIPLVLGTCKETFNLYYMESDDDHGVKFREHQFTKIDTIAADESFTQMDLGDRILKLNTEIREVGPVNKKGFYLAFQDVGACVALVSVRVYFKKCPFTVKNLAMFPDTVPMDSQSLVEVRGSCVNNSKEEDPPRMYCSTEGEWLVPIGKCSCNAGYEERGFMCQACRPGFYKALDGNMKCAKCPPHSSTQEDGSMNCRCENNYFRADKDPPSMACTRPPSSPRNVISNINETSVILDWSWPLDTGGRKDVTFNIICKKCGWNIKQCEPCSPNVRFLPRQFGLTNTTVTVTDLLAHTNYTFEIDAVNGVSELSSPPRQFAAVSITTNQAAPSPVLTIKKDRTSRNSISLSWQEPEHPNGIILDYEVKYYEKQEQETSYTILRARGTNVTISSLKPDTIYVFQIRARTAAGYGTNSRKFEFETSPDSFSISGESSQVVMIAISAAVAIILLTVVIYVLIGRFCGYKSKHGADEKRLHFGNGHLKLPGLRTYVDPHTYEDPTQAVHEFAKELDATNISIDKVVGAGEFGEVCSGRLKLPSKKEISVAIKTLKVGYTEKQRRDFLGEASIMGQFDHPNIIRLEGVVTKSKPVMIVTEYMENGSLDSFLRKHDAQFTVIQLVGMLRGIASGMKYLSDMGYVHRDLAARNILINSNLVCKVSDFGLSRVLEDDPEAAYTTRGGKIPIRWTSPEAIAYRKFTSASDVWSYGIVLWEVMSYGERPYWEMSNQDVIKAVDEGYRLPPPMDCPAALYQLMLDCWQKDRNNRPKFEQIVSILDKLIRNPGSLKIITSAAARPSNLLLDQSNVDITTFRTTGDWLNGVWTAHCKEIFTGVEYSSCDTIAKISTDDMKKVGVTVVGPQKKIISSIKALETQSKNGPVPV

[4] = biological target: T4, EPHA4 (Homo sapiens, UniProt P54764); experiment: KINOMEscan ScanTK; format: binding
T4 construct: purchased Eurofins DiscoverX KINOMEscan (scanTK)

[5] = system: FLT3(ITD); experiment: KINOMEscan ScanTK; format: binding; conditions: for %Control / % difference (compound - Ib %Control): @1000nM
[6] = system: FLT3(ITD,F691L); experiment: KINOMEscan ScanTK; format: binding; conditions: for %Control / % difference (compound - Ib %Control): @1000nM
[7] = biological target: T5, KIT(V559D) (Homo sapiens, UniProt P10721, V559D); experiment: KINOMEscan ScanTK; format: binding
T5 construct: purchased Eurofins DiscoverX KINOMEscan (scanTK)

[8] = biological target: T6, EGFR(G719C) (Homo sapiens, UniProt P00533, G719C); experiment: KINOMEscan ScanTK; format: binding
T6 construct: purchased Eurofins DiscoverX KINOMEscan (scanTK)

[9] = biological target: T7, EGFR(L747-E749del, A750P) (Homo sapiens, UniProt P00533, A750P/DEL747-749); experiment: KINOMEscan ScanTK; format: binding
T7 construct: purchased Eurofins DiscoverX KINOMEscan (scanTK)

[10] = biological target: T8, EGFR(L747-S752del, P753S) (Homo sapiens, UniProt P00533, DEL747-752/P753S); experiment: KINOMEscan ScanTK; format: binding
T8 construct: purchased Eurofins DiscoverX KINOMEscan (scanTK)

[11] = biological target: T9, FLT3(D835Y) (Homo sapiens, UniProt P36888, D835Y); experiment: KINOMEscan ScanTK; format: binding
T9 construct: purchased Eurofins DiscoverX KINOMEscan (scanTK)
T9 sequence (P36888 27-993 D835Y): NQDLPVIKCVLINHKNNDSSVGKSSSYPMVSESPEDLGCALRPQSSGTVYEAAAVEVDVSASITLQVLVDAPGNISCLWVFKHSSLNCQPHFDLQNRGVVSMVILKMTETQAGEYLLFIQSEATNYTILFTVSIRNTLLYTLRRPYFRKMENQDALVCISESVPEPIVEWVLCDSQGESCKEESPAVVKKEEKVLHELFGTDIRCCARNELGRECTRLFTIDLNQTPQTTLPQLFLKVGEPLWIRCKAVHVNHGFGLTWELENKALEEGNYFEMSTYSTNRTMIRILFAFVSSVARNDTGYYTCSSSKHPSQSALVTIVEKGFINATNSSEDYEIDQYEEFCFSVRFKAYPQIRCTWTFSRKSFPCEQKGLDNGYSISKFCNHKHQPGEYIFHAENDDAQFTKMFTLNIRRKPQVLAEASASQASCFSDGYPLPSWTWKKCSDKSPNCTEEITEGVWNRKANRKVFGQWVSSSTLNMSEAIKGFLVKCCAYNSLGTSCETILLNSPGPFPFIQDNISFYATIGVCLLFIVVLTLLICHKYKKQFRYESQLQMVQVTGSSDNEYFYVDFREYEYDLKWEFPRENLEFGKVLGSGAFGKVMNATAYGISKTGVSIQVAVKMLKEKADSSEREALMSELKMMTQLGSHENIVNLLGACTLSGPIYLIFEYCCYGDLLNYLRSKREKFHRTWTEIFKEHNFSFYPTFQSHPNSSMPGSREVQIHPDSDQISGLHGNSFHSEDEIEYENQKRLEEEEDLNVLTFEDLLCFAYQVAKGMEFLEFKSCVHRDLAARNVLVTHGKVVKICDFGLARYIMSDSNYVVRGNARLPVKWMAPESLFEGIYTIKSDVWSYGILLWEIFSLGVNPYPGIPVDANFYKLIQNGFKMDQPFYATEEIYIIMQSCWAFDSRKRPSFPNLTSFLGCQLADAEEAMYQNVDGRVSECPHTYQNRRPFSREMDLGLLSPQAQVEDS

[12] = biological target: JAK3, catalytic domain (795–1124) (Homo sapiens, UniProt P52333); experiment: PhosphoSens enzymatic IC50 (AssayQuant)
From the text: Biochemical enzymatic IC50 data were generated by AssayQuant Technologies (Marlborough, MA) using the PhosphoSens Platform. […] Reaction rate versus log [inhibitor concentration] data were fitted to the four-parameter logistic equation [drawing 1]

T8 sequence (P00533 with tags, fused parts or gaps DEL747-752/P753S limits assumed): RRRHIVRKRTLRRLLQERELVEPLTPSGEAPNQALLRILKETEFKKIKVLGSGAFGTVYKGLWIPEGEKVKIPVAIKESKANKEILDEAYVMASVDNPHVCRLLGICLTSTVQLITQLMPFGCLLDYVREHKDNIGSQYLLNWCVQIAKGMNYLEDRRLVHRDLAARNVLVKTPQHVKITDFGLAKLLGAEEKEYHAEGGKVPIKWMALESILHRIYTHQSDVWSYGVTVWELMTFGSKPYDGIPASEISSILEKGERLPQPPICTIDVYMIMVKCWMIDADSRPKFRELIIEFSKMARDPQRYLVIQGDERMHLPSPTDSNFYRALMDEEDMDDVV
T7 sequence (P00533 with tags, fused parts or gaps DEL747-749/A750P limits assumed): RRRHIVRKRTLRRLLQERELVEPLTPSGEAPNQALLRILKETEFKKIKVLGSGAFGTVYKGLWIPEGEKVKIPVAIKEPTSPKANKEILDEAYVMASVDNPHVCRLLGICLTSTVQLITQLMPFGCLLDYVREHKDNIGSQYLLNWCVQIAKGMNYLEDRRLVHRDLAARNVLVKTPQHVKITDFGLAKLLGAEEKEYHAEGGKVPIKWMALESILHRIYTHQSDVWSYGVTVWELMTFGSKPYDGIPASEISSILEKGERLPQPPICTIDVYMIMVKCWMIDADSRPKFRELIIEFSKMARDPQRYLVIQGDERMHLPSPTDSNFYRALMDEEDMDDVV
T5 sequence (P10721 26-976 V559D): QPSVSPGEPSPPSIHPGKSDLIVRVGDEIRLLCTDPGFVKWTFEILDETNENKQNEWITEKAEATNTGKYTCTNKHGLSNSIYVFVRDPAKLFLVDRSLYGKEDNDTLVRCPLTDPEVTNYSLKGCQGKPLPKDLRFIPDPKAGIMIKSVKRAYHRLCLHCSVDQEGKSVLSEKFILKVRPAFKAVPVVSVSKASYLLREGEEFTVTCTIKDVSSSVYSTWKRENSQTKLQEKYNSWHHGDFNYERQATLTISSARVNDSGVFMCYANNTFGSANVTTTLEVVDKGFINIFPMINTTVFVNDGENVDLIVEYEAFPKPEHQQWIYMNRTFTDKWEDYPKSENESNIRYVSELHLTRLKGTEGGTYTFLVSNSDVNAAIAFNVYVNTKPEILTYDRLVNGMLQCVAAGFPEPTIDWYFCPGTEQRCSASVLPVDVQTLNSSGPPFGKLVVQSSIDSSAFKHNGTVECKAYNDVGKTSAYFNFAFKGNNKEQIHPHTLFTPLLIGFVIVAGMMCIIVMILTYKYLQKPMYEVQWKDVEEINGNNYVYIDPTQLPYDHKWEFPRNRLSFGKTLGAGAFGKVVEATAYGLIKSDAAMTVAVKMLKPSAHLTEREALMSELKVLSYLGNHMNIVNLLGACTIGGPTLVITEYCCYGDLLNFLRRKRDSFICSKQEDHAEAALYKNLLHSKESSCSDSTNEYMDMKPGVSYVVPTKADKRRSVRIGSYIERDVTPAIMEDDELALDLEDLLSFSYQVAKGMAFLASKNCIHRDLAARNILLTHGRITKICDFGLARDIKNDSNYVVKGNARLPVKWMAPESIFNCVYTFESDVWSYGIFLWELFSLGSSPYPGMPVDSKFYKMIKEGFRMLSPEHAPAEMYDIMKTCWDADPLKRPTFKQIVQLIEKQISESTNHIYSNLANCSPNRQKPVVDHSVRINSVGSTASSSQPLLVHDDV
T1 sequence (P00519 whole entry F317L): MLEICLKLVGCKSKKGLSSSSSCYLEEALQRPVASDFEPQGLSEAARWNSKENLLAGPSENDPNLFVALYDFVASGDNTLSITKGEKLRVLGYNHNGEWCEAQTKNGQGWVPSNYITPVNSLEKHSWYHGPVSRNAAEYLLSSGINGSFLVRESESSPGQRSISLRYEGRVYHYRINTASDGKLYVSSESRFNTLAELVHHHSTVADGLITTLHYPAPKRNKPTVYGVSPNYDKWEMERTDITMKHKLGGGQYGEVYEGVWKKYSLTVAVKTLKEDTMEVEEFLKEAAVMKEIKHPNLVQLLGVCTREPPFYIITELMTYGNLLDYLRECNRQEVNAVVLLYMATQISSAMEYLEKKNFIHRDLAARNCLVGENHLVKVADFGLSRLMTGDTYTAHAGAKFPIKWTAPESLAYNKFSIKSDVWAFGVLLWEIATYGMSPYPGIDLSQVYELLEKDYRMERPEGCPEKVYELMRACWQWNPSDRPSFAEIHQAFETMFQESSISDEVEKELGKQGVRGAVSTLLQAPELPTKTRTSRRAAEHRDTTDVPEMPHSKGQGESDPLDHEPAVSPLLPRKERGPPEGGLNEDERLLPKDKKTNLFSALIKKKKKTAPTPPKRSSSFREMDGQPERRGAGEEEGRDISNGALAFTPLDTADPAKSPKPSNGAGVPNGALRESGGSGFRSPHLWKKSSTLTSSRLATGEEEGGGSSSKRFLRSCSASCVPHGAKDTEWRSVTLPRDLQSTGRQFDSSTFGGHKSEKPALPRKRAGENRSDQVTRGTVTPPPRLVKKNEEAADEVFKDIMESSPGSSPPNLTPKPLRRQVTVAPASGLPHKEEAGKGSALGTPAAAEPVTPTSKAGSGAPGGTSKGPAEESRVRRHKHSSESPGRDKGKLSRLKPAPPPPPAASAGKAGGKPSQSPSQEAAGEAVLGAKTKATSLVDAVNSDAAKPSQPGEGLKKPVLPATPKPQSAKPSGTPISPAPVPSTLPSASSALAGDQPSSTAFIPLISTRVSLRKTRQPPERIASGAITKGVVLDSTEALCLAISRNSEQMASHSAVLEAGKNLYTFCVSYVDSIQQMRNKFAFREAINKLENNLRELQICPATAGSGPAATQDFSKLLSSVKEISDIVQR
T6 sequence (P00533 25-1210 G719C): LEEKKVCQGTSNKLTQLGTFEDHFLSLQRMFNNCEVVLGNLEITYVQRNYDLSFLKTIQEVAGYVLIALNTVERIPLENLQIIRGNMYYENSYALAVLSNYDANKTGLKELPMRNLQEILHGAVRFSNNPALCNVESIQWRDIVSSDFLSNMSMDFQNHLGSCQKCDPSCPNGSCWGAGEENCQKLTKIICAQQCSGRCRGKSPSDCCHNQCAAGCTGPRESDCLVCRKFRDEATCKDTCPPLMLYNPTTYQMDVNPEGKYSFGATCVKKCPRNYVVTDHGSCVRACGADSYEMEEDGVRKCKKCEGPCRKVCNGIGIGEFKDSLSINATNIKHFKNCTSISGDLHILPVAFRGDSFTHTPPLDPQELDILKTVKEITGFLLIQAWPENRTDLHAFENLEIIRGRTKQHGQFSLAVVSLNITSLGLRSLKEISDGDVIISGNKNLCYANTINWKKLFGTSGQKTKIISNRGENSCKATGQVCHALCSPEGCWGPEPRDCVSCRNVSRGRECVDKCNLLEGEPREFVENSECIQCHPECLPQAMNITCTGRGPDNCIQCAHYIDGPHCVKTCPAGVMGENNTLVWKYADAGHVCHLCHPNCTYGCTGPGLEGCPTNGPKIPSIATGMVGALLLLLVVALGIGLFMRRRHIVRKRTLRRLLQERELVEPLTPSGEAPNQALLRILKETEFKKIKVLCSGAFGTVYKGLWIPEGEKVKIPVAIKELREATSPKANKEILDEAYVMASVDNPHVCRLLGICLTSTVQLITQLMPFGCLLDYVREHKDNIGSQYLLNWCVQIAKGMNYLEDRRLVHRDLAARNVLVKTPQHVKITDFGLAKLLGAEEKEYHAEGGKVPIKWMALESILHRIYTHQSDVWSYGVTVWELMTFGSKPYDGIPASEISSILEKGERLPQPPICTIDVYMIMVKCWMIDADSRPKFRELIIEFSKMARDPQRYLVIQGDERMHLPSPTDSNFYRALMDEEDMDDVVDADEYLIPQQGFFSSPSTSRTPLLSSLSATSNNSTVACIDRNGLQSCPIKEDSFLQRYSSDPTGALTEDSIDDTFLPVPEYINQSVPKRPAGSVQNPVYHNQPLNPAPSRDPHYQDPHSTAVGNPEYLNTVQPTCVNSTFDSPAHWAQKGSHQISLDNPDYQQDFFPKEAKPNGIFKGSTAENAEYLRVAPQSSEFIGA
T2 sequence (P29317 24-976): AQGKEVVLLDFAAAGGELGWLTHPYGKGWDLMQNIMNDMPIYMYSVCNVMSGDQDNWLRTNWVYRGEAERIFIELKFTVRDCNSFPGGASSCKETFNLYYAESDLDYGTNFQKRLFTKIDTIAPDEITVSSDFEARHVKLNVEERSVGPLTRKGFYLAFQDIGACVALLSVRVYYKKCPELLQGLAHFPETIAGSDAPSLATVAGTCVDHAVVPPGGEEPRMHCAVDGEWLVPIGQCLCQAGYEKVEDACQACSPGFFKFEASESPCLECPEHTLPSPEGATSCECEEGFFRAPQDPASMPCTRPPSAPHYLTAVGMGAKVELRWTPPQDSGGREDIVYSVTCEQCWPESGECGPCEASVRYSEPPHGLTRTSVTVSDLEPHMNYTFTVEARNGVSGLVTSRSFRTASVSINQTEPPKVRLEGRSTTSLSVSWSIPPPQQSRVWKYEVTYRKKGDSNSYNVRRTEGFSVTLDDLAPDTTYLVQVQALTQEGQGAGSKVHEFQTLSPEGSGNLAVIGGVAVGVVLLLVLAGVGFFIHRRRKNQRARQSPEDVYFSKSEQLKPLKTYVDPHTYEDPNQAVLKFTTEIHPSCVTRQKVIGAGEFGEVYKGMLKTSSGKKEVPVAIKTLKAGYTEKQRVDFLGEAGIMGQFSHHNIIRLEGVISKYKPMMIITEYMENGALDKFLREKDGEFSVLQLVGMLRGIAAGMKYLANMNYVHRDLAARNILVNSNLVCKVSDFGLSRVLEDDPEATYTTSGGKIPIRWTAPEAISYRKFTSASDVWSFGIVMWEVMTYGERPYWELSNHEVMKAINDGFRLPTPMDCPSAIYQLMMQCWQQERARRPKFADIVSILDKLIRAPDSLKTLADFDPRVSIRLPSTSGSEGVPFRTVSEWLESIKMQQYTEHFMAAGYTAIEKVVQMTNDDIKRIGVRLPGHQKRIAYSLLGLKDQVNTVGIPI

## C=CC(=O)N1CCC[C@@H](n2nc(-c3ccc(Oc4ccccc4)cc3)c3c(N)ncnc32)C1 [Compound 1g, Ibrutinib, reference compound]
[1]; @1000nM, read-out: %Control
  remaining binding at 1 µM: 32%
[1]; read-out: %Control @1000nM
  remaining binding at 1 µM: 32%
[2]; @1000nM, read-out: %Control
  remaining binding at 1 µM: 100%
[2]; read-out: %Control @1000nM
  remaining binding at 1 µM: 100%
[3]; @1000nM, read-out: %Control
  remaining binding at 1 µM: 76%
[3]; read-out: %Control @1000nM
  remaining binding at 1 µM: 76%
[4]; @1000nM, read-out: %Control
  remaining binding at 1 µM: 91%
[4]; read-out: %Control @1000nM
  remaining binding at 1 µM: 91%
[5]
  %Control @1000nM: 72%
  %Control: 72%
[6]
  %Control @1000nM: 100%
  %Control: 100%
[7]; @1000nM, read-out: %Control
  remaining binding at 1 µM: 27%
[7]; read-out: %Control @1000nM
  remaining binding at 1 µM: 27%

## Cc1cnc(S(C)(=O)=O)nc1N1CCCC(n2nc(-c3ccc(Oc4ccccc4)cc3)c3c(N)ncnc32)C1 (stereo not shown) [Compound 8a, 1-(1-(5-Methyl-2-(methylsulfonyl)pyrimidin-4-yl)piperidin-3-yl)-3-(4-phenoxyphenyl)-1H-pyrazolo[3,4-d]pyrimidin-4-amine]
[1]; @1000nM
  difference in % of control binding versus compound Ib at 1 µM: 44%
[1]; @1000nM, read-out: %Control
  remaining binding at 1 µM: 76%
[1]; read-out: %Control @1000nM
  remaining binding at 1 µM: 76%
[8]; @1000nM
  difference in %Control vs compound Ib at 1 µM: 32.9%
[8]; @1000nM, read-out: %Control
  remaining binding at 1 µM: 34%
[8]; read-out: %Control @1000nM
  remaining binding at 1 µM: 34%
[9]; @1000nM
  difference in %Control versus compound Ib at 1 µM: 79.9%
[9]; @1000nM, read-out: %Control
  remaining binding at 1 µM: 83%
[9]; read-out: %Control @1000nM
  remaining binding at 1 µM: 83%
[10]; @1000nM
  difference in %Control versus compound Ib at 1 µM: 88.5%
[10]; @1000nM, read-out: %Control
  remaining binding at 1 µM: 94%
[10]; read-out: %Control @1000nM
  remaining binding at 1 µM: 94%
[2]; @1000nM
  difference in %Control versus compound Ib at 1 µM: -12%
[2]; @1000nM, read-out: %Control
  remaining binding at 1 µM: 88%
[2]; read-out: %Control @1000nM
  remaining binding at 1 µM: 88%
[3]; @1000nM
  difference in % of control versus compound Ib at 1 µM: 5%
[3]; @1000nM, read-out: %Control
  remaining binding at 1 µM: 81%
[3]; read-out: %Control @1000nM
  remaining binding at 1 µM: 81%
[4]; @1000nM
  %Control difference from compound Ib at 1 µM: 9%
[4]; @1000nM, read-out: %Control
  remaining binding at 1 µM: 100%
[4]; read-out: %Control @1000nM
  remaining binding at 1 µM: 100%
[11]; @1000nM
  difference in %Control versus compound Ib at 1 µM: -4%
[11]; @1000nM, read-out: %Control
  remaining binding at 1 µM: 45%
[11]; read-out: %Control @1000nM
  remaining binding at 1 µM: 45%
[5]
  %Control @1000nM: 91%
  % difference (compound - Ib %Control): 19%
  %Control: 91%
[6]
  %Control @1000nM: 96%
  % difference (compound - Ib %Control): -4%
  %Control: 96%
[7]; @1000nM, read-out: %Control
  remaining binding at 1 µM: 37%
[7]; read-out: %Control @1000nM
  remaining binding at 1 µM: 37%
[12]
  IC50: > 1000 nM

## CCOC(=O)c1cnc(S(C)(=O)=O)nc1N1CCC[C@@H](n2nc(-c3ccc(Oc4ccccc4)cc3)c3c(N)ncnc32)C1 [Compound 8c, Ethyl (R)-4-(3-(4-Amino-3-(4-phenoxyphenyl)-1H-pyrazolo[3,4-d]pyrimidin-1-yl)piperidin-1-yl)-2-(methylsulfonyl)pyrimidine-5-carboxylate]
[1]; @1000nM
  difference in % of control binding versus compound Ib at 1 µM: 58%
[1]; @1000nM, read-out: %Control
  remaining binding at 1 µM: 90%
[1]; read-out: %Control @1000nM
  remaining binding at 1 µM: 90%
[8]; @1000nM
  difference in %Control vs compound Ib at 1 µM: 6.4%
[8]; @1000nM, read-out: %Control
  remaining binding at 1 µM: 7.5%
[8]; read-out: %Control @1000nM
  remaining binding at 1 µM: 7.5%
[9]; @1000nM
  difference in %Control versus compound Ib at 1 µM: 63.9%
[9]; @1000nM, read-out: %Control
  remaining binding at 1 µM: 67%
[9]; read-out: %Control @1000nM
  remaining binding at 1 µM: 67%
[10]; @1000nM
  difference in %Control versus compound Ib at 1 µM: 94.5%
[10]; @1000nM, read-out: %Control
  remaining binding at 1 µM: 100%
[10]; read-out: %Control @1000nM
  remaining binding at 1 µM: 100%
[2]; @1000nM
  difference in %Control versus compound Ib at 1 µM: -2%
[2]; @1000nM, read-out: %Control
  remaining binding at 1 µM: 98%
[2]; read-out: %Control @1000nM
  remaining binding at 1 µM: 98%
[3]; @1000nM
  difference in % of control versus compound Ib at 1 µM: 1%
[3]; @1000nM, read-out: %Control
  remaining binding at 1 µM: 77%
[3]; read-out: %Control @1000nM
  remaining binding at 1 µM: 77%
[4]; @1000nM
  %Control difference from compound Ib at 1 µM: 9%
[4]; @1000nM, read-out: %Control
  remaining binding at 1 µM: 100%
[4]; read-out: %Control @1000nM
  remaining binding at 1 µM: 100%
[11]; @1000nM
  difference in %Control versus compound Ib at 1 µM: 50%
[11]; @1000nM, read-out: %Control
  remaining binding at 1 µM: 99%
[11]; read-out: %Control @1000nM
  remaining binding at 1 µM: 99%
[5]
  %Control @1000nM: 100%
  % difference (compound - Ib %Control): 28%
  %Control: 100%
[6]
  %Control @1000nM: 100%
  % difference (compound - Ib %Control): 0%
  %Control: 100%
[7]; @1000nM, read-out: %Control
  remaining binding at 1 µM: 70%
[7]; read-out: %Control @1000nM
  remaining binding at 1 µM: 70%
